Legend:
Plättchenaggregation [1] = experiment: Acute study: ex vivo platelet aggregation after a single oral dose in conscious rabbits; design: species or system Kaninchen; settings: single oral dose 1,0 - 10,0 mg/kg, plasma taken after 1 hour
Description: (§1) Plättchenreiches Kaninchenplasma wird wie von Born (Arzneimittel-Forsch. 31, 2012 (1981)) angegeben, gewonnen. Die Plättchenaggregation wird durch Erhöhung des Lichtdurchganges durch eine Küvette, die dieses Plasma enthält, gemessen. Die Plättchenzahl wird durch Verdünnung mit autologem, plättchenarmem Plasma auf 450000/mm^s eingestellt. […] Dagegen wird eine durch 4 pg/ml PGI2 bewirkte Aggregationshemmung gegen Arachidonsäure durch die Verbindung der Formel II in genannten Dosisbereich auf 100% gesteigert.
Wache Kaninchen erhielten eine einmalige orale Dosis von 1,0 - 10,0 mg/kg der Verbindung der Formel II.
(§2) Nach 1 Stunde werden die Tiere getötet und plättchenreiches Plasma gewonnen. Die Plättchenaggregation wird wie unter A) beschrieben bestimmt.

Plättchenaggregation [2] = experiment: Chronic study: ex vivo platelet aggregation after 14 days of dosing in conscious rabbits; design: species or system Kaninchen; settings: 1 mg/kg/d for 14 days; found in all animals
Description: as §1, §2
Wache Kaninchen erhielten 1 mg/kg/d der Verbindung der Formel II für 14 Tage, dann wurde wie unter 1) beschrieben weiter verfahren.

Plättchenaggregation [3] = experiment: Platelet aggregation in platelet-rich rabbit plasma in vitro (light transmission, Born); assay type: cell-based, Kaninchen
Description: as §1

`CCOC(=O)[C@H](CCc1ccccc1)N[C@@H](C)C(=O)N1[C@H](C(=O)O)C[C@@H]2CCC[C@@H]21` [Formel II, N-(l-S-Carbethoxy-3-phenyl-propyl)-S-alanyl-cis-endo-2-azabicyclo[3.3.0]octan-3-S-carbonsäure] was tested, and the “Aggregation gegenüber ADP” value (Plättchenaggregation [1]) was “vermindert”, the “Aggregation gegenüber Kollagen” value (Plättchenaggregation [1]) was “vermindert” and the “Potenzierung der PGI2-Wirkung” value (Plättchenaggregation [1]) was “ebenfalls beobachtet”. The “Aggregation gegenüber Arachidonsäure” value (Plättchenaggregation [1]; effect especially against Arachidonsäure) was “vermindert”, the “durch ADP ausgelöste Plättchenaggregation” value (Plättchenaggregation [2]) was “ausgeprägte Inhibierung” and the “durch Arachidonsäure ausgelöste Plättchenaggregation” value (Plättchenaggregation [2]) was “ausgeprägte Inhibierung”. For the same compound, the “durch PGI2 bewirkte Aggregationshemmung gegen Arachidonsäure, gesteigert auf” value (Plättchenaggregation [3]; 4 pg/ml PGI2, compound at 0.1-10 pg/ml Plasma) was 100%, the “Einfluß auf die durch Kollagen ausgelöste Aggregation” value (Plättchenaggregation [3]; 0.1-10 pg/ml Plasma, stimulus 4 pg/ml Kollagen) was “keinen Einfluß” and the “Einfluß auf die durch Arachidonsäure ausgelöste Aggregation” value (Plättchenaggregation [3]; 0.1-10 pg/ml Plasma, stimulus 0.24 mmol/1 Arachidonsäure) was “keinen Einfluß”. The “Einfluß auf die durch ADP ausgelöste Aggregation” value (Plättchenaggregation [3]; 0.1-10 pg/ml Plasma, stimulus 5 mmol/1 ADP) was “keinen Einfluß”.
